# Source: patent publication US20020164581A1 (priority 2001, published 2002)
# Like-named read-outs stand apart in the source and are kept apart here.
# Tests used:
# LDL = settings: 5-50 μM; oxidation by copper ions, monocytes, or endothelial cells; cited from earlier work
# [1] = system: antioxidant enzymes (SOD, CAT, GPX, GR) in bAECs; assay: Antioxidant enzyme (AOE) activities in cell lysates, all four enzymes together; assay type: cell-based, bovine; settings: for AOE change, SERM alone: pretreatment with 1 μM alone
# Description: […] The cells were then lysed on ice by sonication at a setting of 50 mW, with 3×15 set cycles using a Cole-Parmer Ultrasonic Homogenizer (Chicago, Ill.). Protein concentrations in the samples were determined by the Bradford method with bovine serum albumin as a standard (Bradford, Anal. Biochem. 72:248-254, 1976).
# SOD activity was determined by a method based on the ability of SOD to suppress epinephrine auto-oxidation (Misra and Fridovich, J.Biol. Chem. 247:3170-3175, 1972). One unit of SOD activity is defined as the amount of protein that inhibits the oxidation of epinephrine by 50%. Briefly, 100 μl of 10×-diluted cell homogenate (about 10 μg protein) was added to 900 μl of carbonate buffer (0.1 M NaHCO3, 0.1 M Na2CO3, 0.1 mM EDTA, pH 10.2) containing 0.7 mM of epinephrine. The absorbency of the mixture was measured for 4 minutes at 480 nm using a Hitachi U-2000 spectrophotometer (Hitachi, San Jose, Calif.).
# CAT activity was determined by the method of Aebi (Methods Enzymol. 105:121,-126, 1984). One unit of CAT activity is defined as the amount of protein that degrades 1 μmole of H2O2 per minute. Initially, 10 μl of absolute ethanol was mixed with 100 μl of cell homogenates and pre-incubated at 4° C. for 30 minutes. Following the addition of 10 μl Triton X-100 (reduced form), a 100 μl aliquot (about 100 μg of protein) of the resultant mixture was next added to 500 μl of hydrogen peroxide (66 mM) and 400 μl of phosphate buffer (0.1 M NaH2PO4, 0.1 M Na2HPO4, 0.1 mM EDTA, pH 7.0). The absorbency of the mixture was monitored for one minute at 240 nm spectrophotometrically. The molar extinction coefficient of 43.6 M/cm was used to determine the catalase activity.
# GPX activity was determined by a modified method of Flohe and Gunzler (Methods Enzymol. 105:114-121, 1984). One unit of GPX activity is defined as the amount of protein that oxidizes 1 nmole of β-NADPH per minute. In this assay, 100 μl of cell homogenate (about 100 μg protein) was added to 800 μl of phosphate buffer (0.1 M NaH2PO4, 0.1 M Na2HPO4, 0.1 mM EDTA, pH 7.0) containing 12.5 mM glutathione (reduced form, GSH), 0.2 mM β-nicotinamide adenine dinucleotide phosphate (reduced form, β-NADPH), and 0.34 U glutathione reductase. This mixture was pre-incubated at 37 C for 10 minutes and then 100 μl of 12 mM t-butyl hydroperoxide was added. The absorbency of the mixture was determined at 340 nm for 3 minutes. The molar extinction coefficient of 6.22 mM/cm was used to determine the activity of GPX.
# GR activity was determined by a modified method of Carlberg and Mannervik (Methods Enzymol. 11 3:484-490, 1985). One unit of GR activity is defined as the amount of protein that oxidizes 1 nmole of β-NADPH per minute. Briefly, 50 μl of 2 mM β-NADPH in 10 mM Tris buffer (pH 7.0) was added to a cuvette containing 50 μl of 20 mM glutathione (oxidized ofrm, GSSG) in phosphate buffer (0.1 M NaH2PO4, 0.1 M Na2HPO4, 0.1 mM EDTA, pH 7.0) and 800 μl of phosphate buffer. Following the addition of cell homogenate (about 100 μg protein/100 μl) the final mixture was measured at 340 nm for 3 minutes. The molar extinction coefficient of 6.22 mM/cm was used to determine the activity of […].
# [2] = system: bovine aortic endothelial cells (bAECs); settings: for protection against paraquat-mediated cytotoxicity, SERM alone: 10 nM-1 μM, 24 h pretreatment (FIG. 4)
# Description: Primary cultures of bAECs were established from five female beef cattle (ranging in age from 1 to 2 years old) according to the method of Fenselau and Mello (Cancer Res. 36:3269-3273, 1976). Pooled cells were routinely maintained under humidified air (5% CO2) at 37° C. in Dulbecco's modified medium supplemented with 10% fetal bovine serum (FBS). Cells from the second to the fifth passages were used in these studies.
# In the studies in which male and female bAECs were compared, batches of bAECs were independently established from 5 female and 4 male beef cattle (ranging in age from 1 to 2 years old) according to the method of Fenselau and Mello (Cancer Res. 36:3269-3273, 1976). Otherwise, the cells were treated and assessed as described in the paragraph above.
# Prior to E2 pretreatment, cells were grown in phenol red-free DMEM supplemented with 10% dextran/charcoal-stripped FBS for at least 1 passage (3-4 days). Phenol red-free Dulbecco's modified medium was used to avoid potential estrogenic interference. Serum steroid deprivation was conducted according to the conditions described by Yeh et al. (Proc. Natl. Acad. Sci. USA 95:5527-5532, 1998). The E2 level in the stripped serum was assayed using an [^125I] 17β-estradiol radioimmunoassay kit (TKE21, Diagnostic Products Corporation, Los Angeles, Calif.). […] The cells grown in E2-free environments were plated onto Falcon 24-well Primariae™ plates at a density of 5×10^4 cells/well. E2 in dimethylsulfoxide (DMSO) was added to each well at final concentrations ranging from 1 nM to 10 μM 3 hours after plating, and the cells were then incubated for 24 hours (a duration commonly used for the studies of the genomic effects of E2) at 37° C. Control cells were treated with a corresponding amount of DMSO (a final concentration 0.05%).
# Prior to oxidative challenge, E2-containing media was removed, and the cells were rinsed with PBS twice and re-fed with serum-free fresh medium. Subsequently, paraquat was added to the cells at the indicated doses (0.1-2.0 mM) for 3 hours. The oxidative challenge was terminated by aspiration of the oxidant-containing medium and quickly rinsing the cells twice with PBS. The cells were allowed to recover for 48 hours in medium supplemented with 10% regular FBS to exclude the possibility that different concentrations of E2 interfere with the cellular recovery processes.
# Cell survival after oxidative challenge was assessed with a 3-(4,5-dimethylthiazol-2-yl) 2,5 diphenyltetrazolium bromide (MTT) assay in which the mitochondrial dehydrogenase activity of viable cells reduces MTT to a blue formazan product (Carmichael et al. Cancer Res. 47:936-942, 1987). Our prior conditions were employed (Si et al., Endocrine in press, 2001). Briefly, cells were treated with 1/10 volume of MTT solution (5 mg/ml in PBS) and incubated at 37° C. for 2 hours. The supernatant was then removed, and 600 μl of lysis buffer (50% dimethyl formamide, 5% sodium dodecyl sulphate, 0.35 M acetic acid, 50 mM HCl) was added to each well. Following cell lysis, the absorbency was measured at 570 nm and used as an indicator of relative cell survival. The surviving fraction was calculated as compared to the cells without paraquat challenge.
# Two experimental groups were created. In the first group, E2 was added only during the 24-hour pretreatment period. In the second group, E2 was added only during the 3-hour paraquat exposure.
# cardiomyocytes = settings: cited from earlier work
# [3] = system: endothelial nitric oxide synthase; settings: endothelial cells; cited from earlier work
# estrogen receptor = settings: cited from earlier work
compound,measurement,setting,value
C[C@]12CC[C@@H]3c4ccc(O)cc4CC[C@H]3[C@@H]1C[C@@H](O)[C@@H]2O [estriol],effect on LDL oxidation,LDL,inhibit LDL oxidation
"O=C(c1ccc(OCCN2CCCCC2)cc1)c1c(-c2ccc(O)cc2)sc2cc(O)ccc12 [Ral, raloxifene]","AOE change, SERM alone",[1],no detectable change in AOE
same,protection against subsequent oxidative challenge,[2],neither positively nor negatively influenced oxidative resistance
same,"protection against paraquat-mediated cytotoxicity, SERM alone",[2],failed to confer detectable protection
same,effect on E2-induced oxidative protection,[2]; 1 μM (highest tested dose) added with 1 nM E2 during pretreatment,only a slight inhibitory effect on E2 protection
same,effect on E2-induced oxidative protection,[2]; 1-100 nM added with 1 nM E2 during pretreatment,did not affect E2-induced oxidative protection
"C[n+]1ccc(-c2cc[n+](C)cc2)cc1.[Cl-].[Cl-] [paraquat, 1,1′-dimethyl-4,4′-bipyridinium dichloride]",cell killing by paraquat,[2]; exposure of bAECs 3 h at 37 C,dose-dependent cell killing
same,LD50 of paraquat,[2]; male and female bAECs (both genders),0.1 to 1.0 mM
same,LD50 of paraquat toxicity,[2]; untreated control cells (no E2),about 0.5 mM
CC/C(=C(\c1ccccc1)c1ccc(OCCN(C)C)cc1)c1ccccc1 [tamoxifen],effect on E2's protection in cardiomyocytes,cardiomyocytes,abolishes this protective effect
same,effect on E2's induction of nitric oxide synthase,[3],interferes with E2's ability to induce nitric oxide synthase
COc1ccc2c(c1)CCC(c1ccccc1)=C2c1ccc(OCCN2CCCC2)cc1 [nafoxidine],protection against subsequent oxidative challenge,[2],neither positively nor negatively influenced oxidative resistance
CCCCN(C)C(=O)CCCCCCCCCC[C@@H]1Cc2cc(O)ccc2[C@H]2CC[C@]3(C)[C@@H](O)CC[C@H]3[C@H]12 [ICI164384],effect on the beneficial effect of E2,estrogen receptor,reverses the beneficial effect of E2
C[C@@H]1C[C@@H]([C@H](O)CC2CC(=O)NC(=O)C2)C(=O)[C@@H](C)C1 [cyclohexamide],effect on AOE induction by E2,[1]; included during the E2 pretreatment period,abolished
CC/C(=C(/CC)c1ccc(O)cc1)c1ccc(O)cc1 [diethylstilbestrol],protection against subsequent oxidative challenge,[2],acquired significant protection against subsequent oxidative challenge
C[C@]12CC[C@H]3[C@@H](CCC4=CC(=O)CC[C@@]43C)[C@@H]1CC[C@@H]2O [testosterone],effect on LDL oxidation,LDL,has no effect
4-hydroxytamoxifen [4-OH-Tam],effect on E2's capability to evoke AOE activities,[1]; 1 μM SERM included during 1 nM E2 pretreatment (FIG. 6),significantly decreased estrogen's capability to evoke AOE activities
same,"AOE change, SERM alone",[1],no detectable change in AOE
same,protection against subsequent oxidative challenge,[2],neither positively nor negatively influenced oxidative resistance
same,effect on E2-induced oxidative protection,[2]; 10 nM-1 μM added simultaneously with 1 nM E2 during pretreatment,significantly blocked estrogen-induced oxidative protection
same,"protection against paraquat-mediated cytotoxicity, SERM alone",[2],failed to confer detectable protection
same,minimal dose to suppress E2 protection,"[2]; co-treatment with 1 nM E2, endothelial cells",10 nM
